Measured values published in publication PMC7594840, “Identification of histone deacetylase inhibitors with (arylidene)aminoxy scaffold active in uveal melanoma cell lines” (Journal of Enzyme Inhibition and Medicinal Chemistry, 2020).
pIC50: −log10 of the molar value.

How the values were obtained:
[1] = test system: HeLa nuclear extract containing a mixture of HDACs; assay: HDAC Fluorimetric Assay/Drug Discovery Kit (BIOMOL) on HeLa nuclear extract; type: biochemical
Procedure: The hydroxamic acids 1a–c, 2a–f and carboxylic acids 3a–c, 4a––e synthesised in this study were preliminarily tested on a HeLa nuclear extract containing a mixture of HDACs, by using a commercially available HDAC assay kit (BIOMOL). SAHA and Trichostatin A (TSA) were used as positive controls.
HDAC inhibitory activity of newly synthesised compounds was evaluated using an HDAC Fluorimetric Assay/Drug Discovery Kit (AK-500, BIOMOL). […] Reactions were stopped after 30 min by adding Fluor de Lys^TM Developer. After the addition of this developer, the plate was incubated at room temperature for 15 min, the fluorescence intensity of the wells was measured on a fluorometric plate reader with excitation set at 360 nm and emission detection set at 460 nm.

HDAC8 = molecular target: T1, HDAC8 (Homo sapiens, UniProt Q9BY41); assay: Microfluidic chip-based HDAC inhibition assay (Calliper off-chip mobility shift), HDAC8; type: biochemical; conditions: duplicate, 10-point dose curve, 3-fold serial dilution from 30 μM
T1 construct: purchased BPS Bioscience
T1 sequence (Q9BY41 1-377): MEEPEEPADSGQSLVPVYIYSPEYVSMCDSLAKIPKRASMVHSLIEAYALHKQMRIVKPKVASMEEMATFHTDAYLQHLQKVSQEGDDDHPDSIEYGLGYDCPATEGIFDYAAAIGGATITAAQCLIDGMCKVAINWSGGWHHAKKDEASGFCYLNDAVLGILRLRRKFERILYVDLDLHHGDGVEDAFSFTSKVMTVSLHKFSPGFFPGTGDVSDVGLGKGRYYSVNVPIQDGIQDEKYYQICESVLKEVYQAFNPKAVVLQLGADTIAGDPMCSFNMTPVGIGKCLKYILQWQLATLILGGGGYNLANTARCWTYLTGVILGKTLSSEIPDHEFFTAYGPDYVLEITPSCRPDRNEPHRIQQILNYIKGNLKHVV
From the text: Test compounds were screened against human histone deacetylases (HDACs) 1, 3, 6, and 8 using the Calliper off-chip mobility shift assay technology. All HDACs were purchased from BPS Bioscience and four selective substrates were used according to the targeted isozyme. […] Buffers components, except for CR-3 (LabChip Coating Reagent 3, purchased from PerkinElmer, Product Number 760050) and Panobinostat (LBH589, purchased from ApexBio Technology)[35]^,[36] were purchased from Sigma Aldrich. […] (all purchased from Selleck Chemicals).

92.1 cells = assay: Cell cycle distribution by flow cytometry (PI), 92.1 cells; type: cell-based, human; conditions: 10 µM compound, 48 h
Procedure: (§1) We then investigated whether this anti-proliferative effect was due to the blockade in the G0/G1 phase of the cell cycle, as expected for SAHA[31].
(§2) Figure 8. Influence of the different compounds and DMSO solvent control on cell cycle distribution in UM 92.1 and Mel270 cells. The cells were treated with 10 µM compound for 48 h and cell cycle distribution was analysed by flow cytometry after fixation and staining with PI. The percentage of cells in each category is indicated. One representative experiment is shown.
(§3) Treatments with the compounds were performed with slight differences, according to the final use of the samples. For the cell viability assay with MTT, cells were seeded in 96-well flat-bottom plates in culture medium at 5 × 10^3 cells/well, whereas for cell cycle analysis and QRT-PCR cells were seeded in 24-well plates at 5 × 10^4 cells/well. The day after, a culture medium containing the appropriate amount of compounds or their solvent control DMSO was added, and treatments were carried out for the indicated time.
(§4) To assess the cell cycle status of treated samples, after 48 h of incubation the cells were harvested, washed twice with cold PBS, and fixed in 70% ethyl alcohol at −20 °C overnight. The day after, the samples were washed with cold PBS and incubated for 20 min with propidium iodide (PI) staining solution (50 μg/ml PI, 0.05% Triton X-100, 0.2 mg/ml RNase A in PBS) at room temperature. Flow cytometric analysis of DNA content was performed using a FACScan flow cytometer with the CellQuest software (BD Biosciences). Gating on viable cells was performed using physical parameters and 10^4 gated events were acquired. Cell cycle analysis on the gated PI distribution was performed using Modfit software.

Mel270 cells = assay: Cell cycle distribution by flow cytometry (PI), Mel270 cells; type: cell-based, human; conditions: 10 µM compound, 48 h
Procedure: as §1, §2, §3, §4

With O=C(CCCCO/N=C/c1cnc2ccccc2c1)NO [Compound 2f, (E)-N-hydroxy-5-(((quinolin-3-ylmethylene)amino)oxy)pentanamide] the “folds more potent than SAHA” value ([1]; HeLa extract IC50 compared with SAHA) was 3- to 5 fold, the pIC50 ([1]; means of at least three experiments, SD <20% of the mean) was 7.27 and the pIC50 (HDAC8) was 5.03. For the same molecule, the “effect on cell cycle distribution” value (92.1 cells) was “efficiently block the cell cycle at the G0/G1 phase” and the “effect on cell cycle distribution” value (Mel270 cells) was “efficiently block the cell cycle at the G0/G1 phase”.
